Measurements taken from US11274295B2, “Methods for generating pools of variants of a DNA template” (priority 2012, dated 2022).

Experiments:
Type in all cases: cell-based
[1] = tested on: E. coli expressing WT APH(3′)II; test: MIC of aminoglycosides in E. coli expressing WT APH(3′)II, immediately following transformation; settings: Stellar cells transformed with WT pBR322-EM7-neo, LB with carbenicillin 50 μg/mL, 24 hrs, MIC = lowest dilution with A600 < 0.025; for MIC: Escherichia coli, read-out: estimated 1:1 WT MIC
Protocol: (§1) To determine the minimum inhibitory concentration (MIC) of each of the six aminoglycosides: kanamycin, ribostamycin, G418, amikacin, neomycin, paromomycin (Sigma-Aldrich, St. Louis, Mo.) in E. coli expressing WT APH(3′)II, Stellar cells were transformed with pBR322-EM7-neo, recovered in SOC medium (New England Biolabs (NEB), Ipswich, Mass.) at 37° C. for 1 hr, diluted 1:100 with LB and then divided into 96-well growth blocks containing LB with carbenicillin (50 μg/mL) and 2-fold serial dilutions of aminoglycosides. After growth at 37° C. with shaking for 24 hrs, the culture densities were assessed by absorbance at 600 nm (A600) using a NanoDrop 8000 (Thermo Scientific, Billerica, Mass.).
(§2) The cultures were incubated in 50 mL tubes at 37° C. with shaking for 24 hours, pelleted by centrifugation and frozen at −20° C. Plasmids were isolated from the pellets using QIAprep Spin Miniprep kits (Qiagen). Each transformation and selection was performed in duplicate, using each of the two independently generated mutant libraries.

[2] = tested on: E. coli transformed with APH(3′)II substitution libraries; test: Mutational scanning selection of APH(3′)II substitution libraries in E. coli
Description: To perform mutational scanning in vivo, we cultured E. coli transformed with APH(3′)II substitution libraries in liquid media supplemented with decreasing concentrations of one of six aminoglycoside antibiotics with diverse structures and a wide range of potencies: kanamycin, ribostamycin, G418, amikacin, neomycin or paromomycin (FIG. 3). To normalize the selective pressures induced by the different antibiotics, we first established their minimum inhibitory concentrations (MICs) for E. coli transformed with “wild-type” (WT) APH(3′)II and then used 1:1, 1:2, 1:4 and 1:8 dilutions of WT MICs for the respective library selections. We note that, with the exception of G418 and amikacin, even the 1:8 dilutions were sufficient to inhibit growth of untransformed E. coli. After overnight selection, plasmids were isolated from the surviving cells and their coding regions were shotgun sequenced to compare the amino acid composition of the selected libraries to that of the original input libraries (median coverage=51,400×).
as §2

untransformed e. coli = test: Growth inhibition of untransformed E. coli by aminoglycoside; settings: Table 2 experiment
[3] = tested on: E. coli transformed with APH(3′)II variants (pBR322[EM7-K1] through pBR322[EM7-K44]); test: MIC of aminoglycosides in E. coli carrying synthetic APH(3′)II variants, 2-fold dilution series, A600; settings: E. coli expressing the APH(3′)II variant, 2-3 independent cultures
Protocol: as §1
To establish the substrate specificity of the synthetic APH(3′)II variants relative to WT APH(3′)II, glycerol stocks of the relevant clones (pBR322[EM7-K1] through pBR322[EM7-K44]) were streaked onto LB agar plates and cultured overnight at 37° C. Single colonies were then inoculated into 1 mL LB with 50 μg carbenicillin, incubated at 37° C. with shaking for 6 hours, diluted 1:100 into LB media, and then split into 96-well deep well plates containing LB with carbenicillin (50 μg/mL) and 2-fold serial dilutions of aminoglycosides dilution series. We note that the longer recovery in these follow-up experiments increased the absolute MICs compared to those we measured immediately following transformation).

CN[C@@H]1[C@@H](O)[C@@H](O[C@@H]2[C@@H](O)[C@H](O[C@H]3O[C@H]([C@@H](C)O)[C@@H](O)[C@H](O)[C@H]3N)[C@@H](N)C[C@H]2N)OC[C@]1(C)O [G418]
estimated 1:1 WT MIC [1]: 5 µg/mL | selection pressure ([2]; at its 1:8 WT MIC): did not provide an effective selection pressure

NCC[C@H](O)C(=O)N[C@@H]1C[C@H](N)[C@@H](O[C@H]2O[C@H](CN)[C@@H](O)[C@H](O)[C@H]2O)[C@H](O)[C@H]1O[C@H]1O[C@H](CO)[C@@H](O)[C@H](N)[C@H]1O [amikacin]
MIC [1]: 10 µg/mL | selection pressure ([2]; at its 1:4 and 1:8 WT MICs): did not provide an effective selection pressure | lowest concentration that reliably inhibited growth of untransformed e. coli (untransformed e. coli): (*) 12.5 ug/mL was the lowest amikacin concentration that reliably inhibited growth of untransformed e. coli in this experiment. These estimated MICs therefore reflect total or near total loss of activity on both susbtrates.

NC[C@H]1O[C@H](O[C@H]2[C@H](O)[C@@H](O[C@H]3O[C@H](CO)[C@@H](O)[C@H](N)[C@H]3O)[C@H](N)C[C@@H]2N)[C@H](O)[C@@H](O)[C@@H]1O [kanamycin]
MIC [1]: 225 µg/mL

NC[C@@H]1O[C@H](O[C@H]2[C@@H](O)[C@H](O[C@@H]3[C@@H](O)[C@H](N)C[C@H](N)[C@H]3O[C@H]3O[C@H](CO)[C@@H](O)[C@H](O)[C@H]3N)O[C@@H]2CO)[C@H](N)[C@@H](O)[C@@H]1O [paromomycin]
MIC [1]: 320 µg/mL

NC[C@H]1O[C@H](O[C@H]2[C@H](O[C@@H]3O[C@H](CO)[C@@H](O)[C@H]3O)[C@@H](O)[C@H](N)C[C@@H]2N)[C@H](N)[C@@H](O)[C@@H]1O [ribostamycin]
MIC [1]: 2500 µg/mL

neomycin
estimated 1:1 WT MIC [1]: 40 µg/mL

B1: KKA2_KLEPN_opt_K1: Wild-type aminoglycoside-3′-phosphotransferase-II (APH(3′)II) (protein, UniProt P00552 1-264, looked up)
Aminoglycoside …: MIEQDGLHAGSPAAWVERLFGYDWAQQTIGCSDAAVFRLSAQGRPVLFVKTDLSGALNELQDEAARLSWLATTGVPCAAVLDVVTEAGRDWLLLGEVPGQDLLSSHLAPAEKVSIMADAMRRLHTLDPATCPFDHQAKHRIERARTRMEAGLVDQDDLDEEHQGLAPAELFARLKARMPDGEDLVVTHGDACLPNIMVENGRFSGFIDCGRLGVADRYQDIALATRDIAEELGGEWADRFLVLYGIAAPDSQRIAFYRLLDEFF
modifications: codon-optimized
MIC of G418 [3]: 50.00 µg/mL | MIC of amikacin [3]: 25.00 µg/mL | MIC of kanamycin [3]: 2000.00 µg/mL | MIC of neomycin [3]: 400.00 µg/mL | MIC of paromomycin [3]: 4000.00 µg/mL | MIC of ribostamycin [3]: 15000.00 µg/mL
